Assay results as given in the supplement of paper PMC11451515.

What was measured:
Conditions in all cases: 48 h
SEM cells [1] = test: AUC of viability dose-response curve (% viability x log10 dose units); higher = less sensitive
Method in brief: (§1)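 Seeding of medium-adapted leukemia cells was at 500 or 1000 cells/well in 1536-well plates, followed by 48 h at 37°C with library compounds in DMSO at 11 threefold doses from 47 μM to 0.79 nM. CellTiter-Glo One luminescence was normalised per plate to DMSO and cell-free wells and fitted as a four-parameter log-logistic function of log10 dose. Area under the curve was integrated by trapezoidal rule, with curves exceeding full viability scaled and curves failing quality control removed.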

NOMO1 [2] = test: as above
Method in brief: as §1

P12-Ichikawa [3] = test: as above
Method in brief: as §1

SEM cells [4] = test: cell viability relative to DMSO control; higher = less cytotoxic
Method in brief: (§2)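 Viability was expressed as a per-plate percentage of DMSO wells, with cell-free wells as background. Leukemia cells (NOMO1 or SEM at 500 cells/well, P12-Ichikawa at 1000 cells/well) were adapted for at least four passages in each medium and seeded in 1536-well plates (5 μl). Library compounds in DMSO were pin-dosed over an 11-point threefold series from 47 μM to 0.79 nM, and CellTiter-Glo One luminescence was read after 48 h at 37°C.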

NOMO1 [5] = test: as above
Method in brief: as §2

P12-Ichikawa [6] = test: as above
Method in brief: as §2

N[C@@H]1CONC1=O
AUC of viability dose-response curve
Conditions | NOMO1 [2] | P12-Ichikawa [3] | SEM cells [1]
HPLM + 10% dialyzed FBS | 474 | 468 | 418
RPMI 5 mM glucose + 10% FBS | 441 | 474 | 443
RPMI 5 mM glucose + 10% dialyzed FBS | 464 | 465 | 431

cell viability [%]
Conditions | NOMO1 [5] | P12-Ichikawa [6] | SEM cells [4]
HPLM + 10% dialyzed FBS, 0.000781 µM | 90.7 | 97.7 | 99.7
HPLM + 10% dialyzed FBS, 0.00234 µM | 110 | 108 | 100
HPLM + 10% dialyzed FBS, 0.00702 µM | 112 | 101 | 103
HPLM + 10% dialyzed FBS, 0.0211 µM | 101 | 105 | 97.7
HPLM + 10% dialyzed FBS, 0.0632 µM | 99.4 | 109 | 104
HPLM + 10% dialyzed FBS, 0.19 µM | 107 | 106 | 109
HPLM + 10% dialyzed FBS, 0.569 µM | 104 | 109 | 107
HPLM + 10% dialyzed FBS, 1.71 µM | 110 | 112 | 98.5
HPLM + 10% dialyzed FBS, 5.12 µM | 107 | 114 | 104
HPLM + 10% dialyzed FBS, 15.4 µM | 94.4 | 100 | 103
HPLM + 10% dialyzed FBS, 46.1 µM | 105 | 110 | 118
RPMI 5 mM glucose + 10% FBS, 0.000781 µM | 84.4 | 95.6 | 91.3
RPMI 5 mM glucose + 10% FBS, 0.00234 µM | 88.7 | 95.6 | 96
RPMI 5 mM glucose + 10% FBS, 0.00702 µM | 95.7 | 106 | 84.7
RPMI 5 mM glucose + 10% FBS, 0.0211 µM | 91.6 | 102 | 93.5
RPMI 5 mM glucose + 10% FBS, 0.0632 µM | 94.4 | 111 | 86
RPMI 5 mM glucose + 10% FBS, 0.19 µM | 90.6 | 102 | 93.3
RPMI 5 mM glucose + 10% FBS, 0.569 µM | 94.2 | 104 | 108
RPMI 5 mM glucose + 10% FBS, 1.71 µM | 99.4 | 95.5 | 94.9
RPMI 5 mM glucose + 10% FBS, 5.12 µM | 94.6 | 102 | 89.6
RPMI 5 mM glucose + 10% FBS, 15.4 µM | 90.1 | 97.2 | 92.2
RPMI 5 mM glucose + 10% FBS, 46.1 µM | 88.7 | 103 | 92.4
RPMI 5 mM glucose + 10% dialyzed FBS, 0.000781 µM | 87.4 | 92.6 | 91.2
RPMI 5 mM glucose + 10% dialyzed FBS, 0.00234 µM | 98.8 | 95.9 | 81.3
RPMI 5 mM glucose + 10% dialyzed FBS, 0.00702 µM | 112 | 101 | 89.7
RPMI 5 mM glucose + 10% dialyzed FBS, 0.0211 µM | 96 | 101 | 89.2
RPMI 5 mM glucose + 10% dialyzed FBS, 0.0632 µM | 99.3 | 105 | 97.8
RPMI 5 mM glucose + 10% dialyzed FBS, 0.19 µM | 101 | 106 | 87.4
RPMI 5 mM glucose + 10% dialyzed FBS, 0.569 µM | 107 | 98.7 | 101
RPMI 5 mM glucose + 10% dialyzed FBS, 1.71 µM | 88 | 102 | 93.7
RPMI 5 mM glucose + 10% dialyzed FBS, 5.12 µM | 96.2 | 96.5 | 81.6
RPMI 5 mM glucose + 10% dialyzed FBS, 15.4 µM | 89.9 | 101 | 101
RPMI 5 mM glucose + 10% dialyzed FBS, 46.1 µM | 93.7 | 103 | 80.6

Cc1cccc(Nc2ccncc2[S+](=O)([O-])NC(=O)NC(C)C)c1
AUC of viability dose-response curve
Conditions | NOMO1 [2] | P12-Ichikawa [3] | SEM cells [1]
HPLM + 10% dialyzed FBS | 442 | 450 | 409
RPMI 5 mM glucose + 10% FBS | 412 | 457 | 457
RPMI 5 mM glucose + 10% dialyzed FBS | 415 | 425 | 459

cell viability [%]
Conditions | NOMO1 [5] | P12-Ichikawa [6] | SEM cells [4]
HPLM + 10% dialyzed FBS, 0.000781 µM | 105 | 102 | 80.2
HPLM + 10% dialyzed FBS, 0.00234 µM | 103 | 97.6 | 82.6
HPLM + 10% dialyzed FBS, 0.00702 µM | 100 | 100 | 88
HPLM + 10% dialyzed FBS, 0.0211 µM | 85.6 | 93.8 | 92.4
HPLM + 10% dialyzed FBS, 0.0632 µM | 112 | 101 | 85.7
HPLM + 10% dialyzed FBS, 0.19 µM | 105 | 96.7 | 95.1
HPLM + 10% dialyzed FBS, 0.569 µM | 103 | 93 | 98.6
HPLM + 10% dialyzed FBS, 1.71 µM | 87.3 | 90 | 85.6
HPLM + 10% dialyzed FBS, 5.12 µM | 80.9 | 91.3 | 75.5
HPLM + 10% dialyzed FBS, 15.4 µM | 89.3 | 85.8 | 84.4
HPLM + 10% dialyzed FBS, 46.1 µM | 56 | 83.1 | 72.3
RPMI 5 mM glucose + 10% FBS, 0.000781 µM | 95.6 | 94.9 | 103
RPMI 5 mM glucose + 10% FBS, 0.00234 µM | 89.6 | 95.5 | 94.6
RPMI 5 mM glucose + 10% FBS, 0.00702 µM | 96.4 | 95.4 | 83.8
RPMI 5 mM glucose + 10% FBS, 0.0211 µM | 88.9 | 94.2 | 102
RPMI 5 mM glucose + 10% FBS, 0.0632 µM | 83 | 104 | 96.2
RPMI 5 mM glucose + 10% FBS, 0.19 µM | 84.8 | 104 | 97.9
RPMI 5 mM glucose + 10% FBS, 0.569 µM | 89.4 | 98.2 | 111
RPMI 5 mM glucose + 10% FBS, 1.71 µM | 89.1 | 94.1 | 87.7
RPMI 5 mM glucose + 10% FBS, 5.12 µM | 79.2 | 96.8 | 90.4
RPMI 5 mM glucose + 10% FBS, 15.4 µM | 82.3 | 86.4 | 95.3
RPMI 5 mM glucose + 10% FBS, 46.1 µM | 72.4 | 86.6 | 88.5
RPMI 5 mM glucose + 10% dialyzed FBS, 0.000781 µM | 89.1 | 86.1 | 89.7
RPMI 5 mM glucose + 10% dialyzed FBS, 0.00234 µM | 91.4 | 89.3 | 104
RPMI 5 mM glucose + 10% dialyzed FBS, 0.00702 µM | 81.1 | 93.1 | 110
RPMI 5 mM glucose + 10% dialyzed FBS, 0.0211 µM | 94.1 | 90 | 94.4
RPMI 5 mM glucose + 10% dialyzed FBS, 0.0632 µM | 93.6 | 91.9 | 106
RPMI 5 mM glucose + 10% dialyzed FBS, 0.19 µM | 92.6 | 97.2 | 111
RPMI 5 mM glucose + 10% dialyzed FBS, 0.569 µM | 85.5 | 90 | 101
RPMI 5 mM glucose + 10% dialyzed FBS, 1.71 µM | 89.3 | 87.3 | 95.7
RPMI 5 mM glucose + 10% dialyzed FBS, 5.12 µM | 83.5 | 88 | 83.8
RPMI 5 mM glucose + 10% dialyzed FBS, 15.4 µM | 81 | 85.5 | 101
RPMI 5 mM glucose + 10% dialyzed FBS, 46.1 µM | 65.8 | 76.1 | 84.5

COc1ccc(C(=O)c2c(C)n(CCN3CCOCC3)c3cc(I)ccc23)cc1
AUC of viability dose-response curve
Conditions | NOMO1 [2] | P12-Ichikawa [3] | SEM cells [1]
HPLM + 10% dialyzed FBS | 354 | 381 | 461
RPMI 5 mM glucose + 10% FBS | 344 | 381 | 461
RPMI 5 mM glucose + 10% dialyzed FBS | 357 | 409 | 458

cell viability [%]
Conditions | NOMO1 [5] | P12-Ichikawa [6] | SEM cells [4]
HPLM + 10% dialyzed FBS, 0.000781 µM | – | 106 | 85.3
HPLM + 10% dialyzed FBS, 0.00234 µM | – | 113 | 102
HPLM + 10% dialyzed FBS, 0.00702 µM | – | 113 | 111
HPLM + 10% dialyzed FBS, 0.0211 µM | – | 124 | 109
HPLM + 10% dialyzed FBS, 0.0632 µM | – | 124 | 105
HPLM + 10% dialyzed FBS, 0.19 µM | – | 121 | 110
HPLM + 10% dialyzed FBS, 0.569 µM | – | 119 | 103
HPLM + 10% dialyzed FBS, 1.71 µM | – | 120 | 93.8
HPLM + 10% dialyzed FBS, 5.12 µM | – | 39.7 | 98.5
HPLM + 10% dialyzed FBS, 15.4 µM | – | 13.7 | 91.7
HPLM + 10% dialyzed FBS, 46.1 µM | – | 9.27 | 66.4
RPMI 5 mM glucose + 10% FBS, 0.000781 µM | 105 | 115 | 88
RPMI 5 mM glucose + 10% FBS, 0.00234 µM | 112 | 121 | 108
RPMI 5 mM glucose + 10% FBS, 0.00702 µM | 126 | 128 | 104
RPMI 5 mM glucose + 10% FBS, 0.0211 µM | 133 | 122 | 93.6
RPMI 5 mM glucose + 10% FBS, 0.0632 µM | 138 | 129 | 106
RPMI 5 mM glucose + 10% FBS, 0.19 µM | 122 | 124 | 111
RPMI 5 mM glucose + 10% FBS, 0.569 µM | 119 | 133 | 107
RPMI 5 mM glucose + 10% FBS, 1.71 µM | 29.9 | 130 | 111
RPMI 5 mM glucose + 10% FBS, 5.12 µM | 27.1 | 41.6 | 96.4
RPMI 5 mM glucose + 10% FBS, 15.4 µM | 24.9 | 14.3 | 95.1
RPMI 5 mM glucose + 10% FBS, 46.1 µM | 21.1 | 12.3 | 52
RPMI 5 mM glucose + 10% dialyzed FBS, 0.000781 µM | 100 | 102 | 102
RPMI 5 mM glucose + 10% dialyzed FBS, 0.00234 µM | 115 | 110 | 93.5
RPMI 5 mM glucose + 10% dialyzed FBS, 0.00702 µM | 124 | 130 | 117
RPMI 5 mM glucose + 10% dialyzed FBS, 0.0211 µM | 116 | 118 | 115
RPMI 5 mM glucose + 10% dialyzed FBS, 0.0632 µM | 130 | 129 | 115
RPMI 5 mM glucose + 10% dialyzed FBS, 0.19 µM | 126 | 134 | 123
RPMI 5 mM glucose + 10% dialyzed FBS, 0.569 µM | 137 | 131 | 132
RPMI 5 mM glucose + 10% dialyzed FBS, 1.71 µM | 52.3 | 126 | 129
RPMI 5 mM glucose + 10% dialyzed FBS, 5.12 µM | 29.1 | 94.2 | 107
RPMI 5 mM glucose + 10% dialyzed FBS, 15.4 µM | 27.4 | 32.8 | 99.1
RPMI 5 mM glucose + 10% dialyzed FBS, 46.1 µM | 23.3 | 14.9 | 60.3
